Where two headings read alike, the source gives them in different places.
What was measured:
[1] = tested on: HIV-1 (IIIB strain); experiment: Anti-HIV-1 assay: inhibition of virus-induced cytopathicity in acutely infected MT-4 cells (MTT); format: cell-based; conditions: mean of at least two separate experiments
Description: (§1) Compounds. Compounds were solubilized in DMSO at 200 mM and then diluted into culture medium.
(§2) Cells and viruses. MT-4, C8166, H9/IIIB and CEM cells were grown at 37° C. in a 5% CO2 atmosphere in RPMI 1640 medium, supplemented with 10% fetal calf serum (FCS), 100 UI/mL penicillin and 100 μg/mL streptomycin. Cell cultures were checked periodically for the absence of mycoplasma contamination with a MycoTect Kit (Gibco). Human immunodeficiency virus type-1 (HIV-1, IIIB strain) was obtained from supernatants of persistently infected H9/IIIB cells.
(§3) Anti-HIV assays. Activity of the compounds against HIV-1 and HIV-2 multiplication in acutely infected cells was based on the inhibition of virus-induced cytopathicity in MT-4 and C8166 cells, respectively. Briefly, 50 μL of culture medium containing 1×10^4 cells were added to each well of flat-bottom microtiter trays containing 50 μl of culture medium with or without various concentrations of the test compounds. Then 20 μL of an HIV suspension containing 100 CCID50 were added. After a 4-day incubation at 37° C., the number of viable cells was determined by the 3-(4,5-dimethylthiazol-[…])-2,5-diphenyltetrazolium bromide (MTT) method. Cytotoxicity of the compounds was evaluated in parallel with their antiviral activity. It was based on the viability of mock-infected cells, as monitored by the MTT method.

[2] = tested on: mock-infected MT-4 cells; experiment: Cytotoxicity: viability of mock-infected cells by the MTT method; format: cell-based
Description: as §1, §2, §3

[3] = MT-4 cells, HIV-1, MTT method, read-out: EC50 (compound dose required to achieve 50% protection of MT-4 cells from HIV-1 induced cytopathogenicity)
[4] = HIV-1 infected MT-4 cells, MTT method, read-out: EC50: compound dose required to achieve 50% protection of MT-4 cells from HIV-1 induced cytopathogenicity

Row | SMILES | EC50 [1, 3] [µM] | CC50 [2] [µM] | EC50 [1, 4] [µM] | melting point [°C]
1 | CCC(C)Sc1nc(Cc2ccccc2C(F)(F)F)cc(=O)[nH]1 (racemic) [MC 868] | 32 | > 200 |  | 
2 | CCCCSc1nc(C(C)c2c(F)cccc2F)c(C)c(=O)[nH]1 (racemic) [MC 1175] |  | 112 | 0.008 | 
3 | Cc1c([C@@H](C)c2c(F)cccc2F)nc(SC2CCCC2)[nH]c1=O [MC 1047] | 0.009 | > 200 |  | 
4 | CC1CCC(C)C(Oc2nc(Cc3ccccc3)cc(=O)[nH]2)C1 (mixture of isomers) [MC 507] | 3.5 | 143 |  | 
5 | CCC(C)Oc1nc(Cc2c(F)cccc2F)cc(=O)[nH]1 (racemic) [MC 1114] | 25 | 130 |  | 
6 | CCC(C)Sc1nc(C(c2ccccc2)c2ccccc2)cc(=O)[nH]1 (racemic) [MC 796] | > 61 | 61 |  | 
7 | CCC(C)Sc1nc(Cc2cccc([N+](=O)[O-])c2)cc(=O)[nH]1 (racemic) [MC 897] | 0.4 | 157 |  | 
8 | CCC(C)Sc1nc(Cc2ccc(F)cc2)cc(=O)[nH]1 (racemic) [MC 889] | 8.7 | > 200 |  | 
9 | CCC(C)Sc1nc(Cc2cccc(F)c2)cc(=O)[nH]1 (racemic) [MC 884] | 0.7 | > 200 |  | 
10 | Cc1c(Cc2c(F)cccc2F)nc(NC2CCCC2)[nH]c1=O [MC1050, 2-Cyclopentylamino-6-(2,6-difluorophenylmethyl)-3,4-dihydro-5-methylpyrimidin-4-one] |  |  |  | 115 to 117
11 | Cc1c(C(C)c2c(F)cccc2F)nc(SC2CCCCC2)[nH]c1=O (racemic) [MC 1174] |  | > 200 | 0.018 | 
12 | CCCCNc1nc(C(C)c2c(F)cccc2F)cc(=O)[nH]1 (racemic) [MC 1189] |  | 52 | 0.03 | 
13 | CCC(C)Nc1nc(C(C)c2c(F)cccc2F)cc(=O)[nH]1 (mixture of isomers) [MC 1192] |  | 86 | 0.04 | 
14 | CCC(C)Sc1nc(Cc2ccc(C)cc2)cc(=O)[nH]1 (racemic) [MC 809] | 0.6 | 200 |  | 
15 | CC1CCC(Oc2nc(Cc3ccccc3)cc(=O)[nH]2)CC1C (mixture of isomers) [MC 508] | 6.4 | 58 |  | 
16 | Cc1c(C(C)c2c(F)cccc2F)nc(NC2CCCCC2)[nH]c1=O (racemic) [MC 1181] |  | 58 | 0.03 | 
17 | Cc1c(Cc2ccccc2)nc(OC2CC(C)CCC2C)[nH]c1=O (mixture of isomers) [MC 531] | 3.5 | 138 |  | 
18 | CCC(C)Sc1nc(Cc2ccc(C(F)(F)F)cc2)cc(=O)[nH]1 (racemic) [MC 959] | 25 | 200 |  | 

Row | SMILES | EC50 [1, 3] [µM] | CC50 [2] [µM] | EC50 [1, 4] [µM] | melting point [°C]
19 | Cc1c(C(C)c2c(F)cccc2F)nc(SC(C)C)[nH]c1=O (racemic) [MC 1137] |  | 200 | 0.007 | 
20 | CC(c1cc(=O)[nH]c(NC2CCCCC2)n1)c1c(F)cccc1F (racemic) [MC 1180] |  | 56 | 0.02 | 
21 | CNc1nc(C(C)c2c(F)cccc2F)c(C)c(=O)[nH]1 (racemic) [MC 1170] |  | 200 | 0.03 | 
22 | CCC(C)Sc1nc(Cc2ccccc2C)cc(=O)[nH]1 (racemic) [MC 806] | 1.8 | > 200 |  | 
23 | CCC(C)Sc1nc(Cc2ccc([N+](=O)[O-])cc2)cc(=O)[nH]1 (racemic) [MC 863] | 1.5 | 151 |  | 
24 | Cc1c(C(C)c2c(F)cccc2F)nc(SCC(C)C)[nH]c1=O (racemic) [MC 1153] |  | > 200 | 0.01 | 
25 | CCC(C)Sc1nc(Cc2ccccc2[N+](=O)[O-])cc(=O)[nH]1 (racemic) [MC 817] | 0.25 | > 200 |  | 
26 | CCC(C)Sc1nc(Cc2ccc(Cl)cc2)cc(=O)[nH]1 (racemic) [MC 859] | 5 | 120 |  | 
27 | CC(C)Nc1nc(C(C)c2c(F)cccc2F)cc(=O)[nH]1 (racemic) [MC 1191] |  | 115 | 0.03 | 
28 | CNc1nc(C(C)c2c(F)cccc2F)cc(=O)[nH]1 (racemic) [MC 1178] | 0.11 | 106 |  | 
29 | CCC(c1ccccc1)c1cc(=O)[nH]c(SC(C)C)n1 (racemic) [MC 899] | 0.8 | 200 |  | 
30 | CC(C)Sc1nc(C(C)c2ccccc2)cc(=O)[nH]1 (racemic) [MC 890] | 0.9 | > 200 |  | 
31 | CCC(c1ccccc1)c1cc(=O)[nH]c(SC2CCCC2)n1 (racemic) [MC 900] | 1 | > 200 |  | 
32 | CC(c1ccccc1)c1cc(=O)[nH]c(SC2CCCC2)n1 (racemic) [MC 892] | 0.6 | 159 |  | 
33 | CCC(c1ccccc1)c1cc(=O)[nH]c(SC2CCCCC2)n1 (racemic) [MC 903] | 1.3 | > 200 |  | 
34 | CCCCNc1nc(C(C)c2c(F)cccc2F)c(C)c(=O)[nH]1 (racemic) [MC 1187] |  | 83 | 0.01 | 
35 | CC1CC(C)CC(Oc2nc(Cc3ccccc3)cc(=O)[nH]2)C1 (mixture of isomers) [MC 512] | 30 | > 200 |  | 
